# Results reported in patent US11123332B2 (priority 2018, dated 2021).
# Entries after “also recorded” stand apart in the source; their conditions may differ. Read-outs that look alike come from different tables or passages of the source.
# Assays:
# [1] = system: insomnia; conditions: three-month efficacy study; cited from earlier work
# [2] = system: combined delta, theta and alpha activity; conditions: 160 minutes after the first treatment; Nutt et al (2015); cited from earlier work
# [3] = system: mouse brain (c-fos expression)
# Description: A unique and novel approach to preclinical testing of psychiatric drugs is based on the proposition that a direct readout of drug-evoked brain activation or inhibition in an animal is the most relevant preclinical assay, because psychiatric drugs exert their effects via activation or inhibition of specific neural circuits and cell types in the brain. […] The method called “pharmacomapping” (implemented by Certerra, Inc. Farmingdale, N.Y.) is based on a largely automated drug-screening platform that comprises whole-brain detection of drug-evoked neuronal activation represented by drug-evoked expression of the immediate early gene (IEG) c-fos (Herrera and Robertson 1996). Until now, the detection of c-fos as a marker of brain activation has been done by laborious methods of in situ hybridization or immunohistochemistry in brain tissue sections, followed by mounting the sections on microscopic slides, manual imaging, and largely visual quantification. Nevertheless, over the last two decades a number of studies used these methods to test drug-evoked activity in the mouse or rat brain for various psychoactive medications, including antipsychotics, antidepressants, stimulants and anxiolytics (Engber et al., 1998; Kiss, 2018; Salminen et al., 1996; SEMBA et al., 1996; Slattery et al., 2005; Sumner et al., 2004).
# In contrast to the older methods, the pharmacomapping method uses automated and standardized whole-brain immunostaining and brain clearing together with advanced microscopy (light-sheet fluorescence microscopy, LSFM), computational (e.g. machine learning) and statistical methods (FIG. 1). The first generation of this platform used serial two-photon tomography (STPT) as a method for imaging and c-fos-GFP mice expressing green fluorescent protein (GFP) under the control of the c-fos promoter (US 20140297199A1).
# [4] = system: patients with severe major depressive disorder; conditions: daily oral gaboxadol 5 mg or 10 mg with escitalopram 20 mg, 490 patients; cited from earlier work
# [5] = cited from earlier work; for Apparent t1/2: harmonic mean N = 10; for Tmax: median N = 10
# [6] = system: mouse; test: forced swim test; format: in vivo; conditions: for time spent in floating (immobility) during a 6 min forced swim: compared to control vehicle-treated group, FIG. 5; for time spent floating in forced swim: single dose 10 mg/kg, vs vehicle
# Experimental: The forced swim test is a frequently used behavioral protocol with a well-established therapeutic predictability for a broad range of antidepressants including ketamine (Porsolt et al. 1977; Cryan and Mombereau 2004; Cryan et al. 2005; Lucki et al. 2001). In this test the mouse is put in a beaker filled with water and the time spent struggling, swimming and floating is measured, with the time spent floating when the mouse stops struggling to swim—being used as a behavioral correlate of depression.
# [7] = acute single dose 10 mg/kg, 10 mg/kg
# [8] = 10 mg I.V., geometric mean N = 10
# [9] = 10 mg Oral, geometric mean N = 10
smiles,measurement,setting,value
"Oc1noc2c1CCNC2 [gaboxadol, 4,5,6,7-tetrahydroisoxazolo (5,4-c) pyridin-3-ol]",effects in sleep onset and sleep maintenance,[1],failed to show significant effects
same,"whole head MEG planar gradiometer increase in combined delta, theta and alpha activity",[2],≥ +3
same,drug-evoked brain activation (pharmacomap),[3]; 3 mg/kg alone,neither gaboxadol at 3 mg/kg nor ketamine at 6 mg/kg alone evoked any brain activation detectable
same,drug-evoked brain activation (pharmacomap),[3]; [7],very similar brain activation as ketamine
same,drug-evoked brain activation (pharmacomap),"[3]; acute single dose 10 mg/kg, listed as Gaboxadol, 10 mg/kg",broad brain activation that is highly similar to that of ketamine
same,additional benefit in treatment of severe major depressive disorder,[4],no additional benefit
same,fe,"[5]; 2.5 mg single oral dose, geometric mean N = 10",43%
same,AUC0-∞,"[5]; 2.5 mg single oral dose, geometric mean N = 10, potency adjusted",90 ng·h/mL
same,Apparent t1/2,[5]; 2.5 mg single oral dose,1.5 h
same,Tmax,[5]; 2.5 mg single oral dose,0.5 h
same,fe,"[5]; 5 mg single oral dose, geometric mean N = 10",45%
same,Apparent t1/2,[5]; 5 mg single oral dose,1.5 h
same,Tmax,[5]; 5 mg single oral dose,0.6 h
same,AUC0-∞,[5]; [8],380 ng·h/mL
same,fe,[5]; [8],53%
same,Apparent t1/2,[5]; 10 mg I.V.,1.5 h
same,CLR,[5]; [9],250 mL/min
same,fe,[5]; [9],53%
same,Apparent t1/2,[5]; 10 mg Oral,1.6 h
same,Tmax,[5]; 10 mg Oral,0.5 h
same,fe,"[5]; 15 mg single oral dose, geometric mean N = 10",50%
same,Apparent t1/2,[5]; 15 mg single oral dose,1.5 h
same,Tmax,[5]; 15 mg single oral dose,0.5 h
same,fe,"[5]; 20 mg single oral dose, geometric mean N = 10",53%
same,Apparent t1/2,[5]; 20 mg single oral dose,1.6 h
same,Tmax,[5]; 20 mg single oral dose,0.6 h
same,dose proportionality of plasma AUC0-∞ and Cmax,[5]; dose range 2.5 to 20 mg oral,dose proportional increases
same,half-life (t1/2),[5]; independent of dose across 2.5 to 20 mg oral,1.5 h
same,time spent in floating (immobility) during a 6 min forced swim,[6],significantly reduced
same,time spent floating in forced swim,[6]; 1 hour after drug delivery,nearly identical behavioral effect as the ketamine group
same,time spent floating in forced swim,[6]; 24 hours after drug delivery,nearly identical behavioral effect as the ketamine group
CNC1(c2ccccc2Cl)CCCCC1=O (centres unmarked) [ketamine],drug-evoked brain activation (pharmacomap),[3]; 6 mg/kg alone,neither gaboxadol at 3 mg/kg nor ketamine at 6 mg/kg alone evoked any brain activation detectable
same,drug-evoked brain activation (pharmacomap),[3]; acute single dose 5 mg/kg,modest activation
same,drug-evoked brain activation (pharmacomap),[3]; [7],very robust and broad activation; also recorded: very broad activation pattern
same,drug-evoked brain activation (pharmacomap),[3]; acute single dose 100 mg/kg,modest activation
same,time spent in floating (immobility) during a 6 min forced swim,[6],significantly reduced
same,time spent floating in forced swim,[6]; 1 hour after drug delivery,significantly decreases
same,time spent floating in forced swim,[6]; 24 hours after drug delivery,significantly decreases
